Assay results: patent US4983602A, “3'-hydroxybenzoxazinorifamycin derivative, process for preparing the same and antibacterial agent containing the same” (Kanegafuchi Kagaku Kogyo Kabushiki Kaisha, priority 1988, dated 1991)
Values after ≈ are worked out from the molar mass of the structure shown.

Legend:
[1] = test system: Micrococcus luteus IFO 12708; test: Minimal inhibitory concentration, standard method of Japan Society of Chemotherapy; assay type: cell-based; details: IFO12708
[2] = test system: Bacillus subtilis IFO 3134; test: as above; assay type: cell-based; details: IFO3134
[3] = test system: Staphylococcus aureus IFO 12732; test: as above; assay type: cell-based; details: IFO12732
[4] = test system: Escherichia coli IFO 12734; test: as above; assay type: cell-based; details: IFO12734
[5] = test system: Klebsiella pneumoniae IFO 3512; test: as above; assay type: cell-based; details: IFO3512
[6] = test system: Mycobacterium smegmatis ATCC 607; test: as above; assay type: cell-based; details: Mycolicibacterium smegmatis, ATCC607
[7] = test system: Mycobacterium tuberculosis H37 Rv; test: Minimal inhibitory concentration against a tubercle bacillus; details: Kirchner liquid medium containing 10% bovine serum, 37° C., 4 weeks
[8] = test system: Mycobacterium tuberculosis H37 Rv; test: Survival of mice infected with tuberculosis, groups of 10 (Tables 4 and 5); details: oral, 200 μg/mouse; for dead mice: fortieth day
[9] = test system: Mycobacterium tuberculosis H37 Rv; test: Therapeutic effect on mice infected with tuberculosis, groups of 20 (FIG. 1); details: oral, 200 μg/mouse once a day, six days a week

Compound	MIC [1] [µg/mL]	MIC [2] [µg/mL]	MIC [3] [µg/mL]	MIC [4] [µg/mL]	MIC [5] [µg/mL]	MIC [6] [µg/mL]	Minimal inhibitory concentration [7] [µg/mL]	Survival rate ([8]; Table 5, control 0%) [%]	dead mice ([8]; Table 5 test)	Survival rate ([8]; Table 4, control 30%) [%]	dead mice ([8]; Table 4 test)	therapeutic effect as compared with rifampicin (and derivative A) [9]
CCCCN1CCN(c2cc(O)c3nc4c5c6c7c(C)c(O)c5c(=O)c(c-4oc3c2)NC(=O)C(C)=CC=CC(C)C(O)C(C)C(O)C(C)C(OC(C)=O)C(C)C(OC)C=COC(C)(O7)C6=O)CC1 (stereo not drawn) [Derivative No. 1]	≤ 0.02	≤ 0.02	≤ 0.02	> 10	> 10	5 (≈ 5.31 µM)	0.035 (≈ 0.0372 µM)	100	there was not observed any dead mouse	–	–	–
COC1C=COC2(C)Oc3c(C)c(O)c4c(=O)c(c5oc6cc(N7CCN(CC(C)C)CC7)cc(O)c6nc-5c4c3C2=O)NC(=O)C(C)=CC=CC(C)C(O)C(C)C(O)C(C)C(OC(C)=O)C1C (stereo not drawn) [Derivative No. 2]	≤ 0.02	0.04 (≈ 0.0425 µM)	≤ 0.02	> 10	> 10	2.5 (≈ 2.66 µM)	0.017 (≈ 0.0181 µM)	–	–	100	there was not observed any dead mouse	excellent therapeutic effect as compared with rifampicin
COC1C=COC2(C)Oc3c(C)c(O)c4c(=O)c(c5oc6cc(N7CCN(CC8CC8)CC7)cc(O)c6nc-5c4c3C2=O)NC(=O)C(C)=CC=CC(C)C(O)C(C)C(O)C(C)C(OC(C)=O)C1C (stereo not drawn) [Derivative No. 3]	≤ 0.02	≤ 0.02	≤ 0.02	> 10	> 10	2.5 (≈ 2.66 µM)	0.017 (≈ 0.0181 µM)	–	–	100	there was not observed any dead mouse	–
CCC(C)N1CCN(c2cc(O)c3nc4c5c6c7c(C)c(O)c5c(=O)c(c-4oc3c2)NC(=O)C(C)=CC=CC(C)C(O)C(C)C(O)C(C)C(OC(C)=O)C(C)C(OC)C=COC(C)(O7)C6=O)CC1 (stereo not drawn) [Derivative No. 4]	≤ 0.02	≤ 0.02	≤ 0.02	> 10	> 10	1.25 (≈ 1.33 µM)	0.017 (≈ 0.0181 µM)	100	there was not observed any dead mouse	–	–	–
COC1C=COC2(C)Oc3c(C)c(O)c4c(=O)c(c5oc6cc(N7CCN(CCC(C)C)CC7)cc(O)c6nc-5c4c3C2=O)NC(=O)C(C)=CC=CC(C)C(O)C(C)C(O)C(C)C(OC(C)=O)C1C (stereo not drawn) [Derivative No. 5]	≤ 0.02	0.16 (≈ 0.168 µM)	≤ 0.02	> 10	> 10	5 (≈ 5.23 µM)	0.07 (≈ 0.0733 µM)	–	–	100	there was not observed any dead mouse	–
COC1C=COC2(C)Oc3c(C)c(O)c4c(=O)c(c5oc6cc(N7CCN(C(C)(C)C)CC7)cc(O)c6nc-5c4c3C2=O)NC(=O)C(C)=CC=CC(C)C(O)C(C)C(O)C(C)C(OC(C)=O)C1C (stereo not drawn) [Derivative No. 6]	≤ 0.02	≤ 0.02	≤ 0.02	> 10	> 10	1.25 (≈ 1.33 µM)	0.008 (≈ 0.0085 µM)	100	there was not observed any dead mouse	–	–	–
C=CCN1CCN(c2cc(O)c3nc4c5c6c7c(C)c(O)c5c(=O)c(c-4oc3c2)NC(=O)C(C)=CC=CC(C)C(O)C(C)C(O)C(C)C(OC(C)=O)C(C)C(OC)C=COC(C)(O7)C6=O)CC1 (stereo not drawn) [Derivative No. 7]	≤ 0.02	0.04 (≈ 0.0432 µM)	≤ 0.02	> 10	> 10	2.5 (≈ 2.7 µM)	0.035 (≈ 0.0378 µM)	–	–	100	there was not observed any dead mouse	–
C=CCCN1CCN(c2cc(O)c3nc4c5c6c7c(C)c(O)c5c(=O)c(c-4oc3c2)NC(=O)C(C)=CC=CC(C)C(O)C(C)C(O)C(C)C(OC(C)=O)C(C)C(OC)C=COC(C)(O7)C6=O)CC1 (stereo not drawn) [Derivative No. 8]	≤ 0.02	≤ 0.02	≤ 0.02	> 10	> 10	2.5 (≈ 2.66 µM)	0.017 (≈ 0.0181 µM)	100	there was not observed any dead mouse	–	–	–
COC1C=COC2(C)Oc3c(C)c(O)c4c(=O)c(c5oc6cc(N7CCN(CC=C(C)C)CC7)cc(O)c6nc-5c4c3C2=O)NC(=O)C(C)=CC=CC(C)C(O)C(C)C(O)C(C)C(OC(C)=O)C1C (stereo not drawn) [Derivative No. 9]	≤ 0.02	0.08 (≈ 0.0839 µM)	≤ 0.02	> 10	> 10	2.5 (≈ 2.62 µM)	0.035 (≈ 0.0367 µM)	–	–	100	there was not observed any dead mouse	–
COC1C=COC2(C)Oc3c(C)c(O)c4c(=O)c(c5oc6cc(N7CCN8CCCC8C7)cc(O)c6nc-5c4c3C2=O)NC(=O)C(C)=CC=CC(C)C(O)C(C)C(O)C(C)C(OC(C)=O)C1C (stereo not drawn) [Derivative No. 10]	≤ 0.02	≤ 0.02	≤ 0.02	10 (≈ 10.8 µM)	10 (≈ 10.8 µM)	2.5 (≈ 2.7 µM)	0.15 (≈ 0.162 µM)	–	–	100	there was not observed any dead mouse	–
CO[C@H]1/C=C/O[C@@]2(C)Oc3c(C)c(O)c4c(O)c(c(/C=N/N5CCN(C)CC5)c(O)c4c3C2=O)NC(=O)/C(C)=C\C=C\[C@H](C)[C@H](O)[C@@H](C)[C@@H](O)[C@@H](C)[C@H](OC(C)=O)[C@@H]1C [Rifampicin, reference compound]	–	–	–	–	–	–	0.6 (≈ 0.729 µM)	40	–	80	–	–
COC1C=COC2(C)Oc3c(C)c(O)c4c(=O)c(c5oc6cc(N7CCCCC7)ccc6nc-5c4c3C2=O)NC(=O)C(C)=CC=CC(C)C(O)C(C)C(O)C(C)C(OC(C)=O)C1C (stereo not drawn) [derivative B]	–	–	–	–	–	–	–	–	–	–	–	inferior to rifampicin
CCc1c(N2CCCC2)ccc2nc3c4c5c6c(C)c(O)c4c(=O)c(c-3oc12)NC(=O)C(C)=CC=CC(C)C(O)C(C)C(O)C(C)C(OC(C)=O)C(C)C(OC)C=COC(C)(O6)C5=O (stereo not drawn) [derivative C]	–	–	–	–	–	–	–	–	–	–	–	inferior to rifampicin
